Assay results: the supplement of paper PMC10307832

Columns and labels:
Test in all cases: relative viability (nuclei count vs DMSO), 5 days (fraction); higher = more cells survive
[1] = compound: C1CNCCC1C2=CC(=NN2)C3=CC=NC=C3
Method in brief: (§1)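 Acceptance criteria were a control CV below 25% and at least one doubling per plate. Lung cancer cell lines in 1536-well plates got five library-drug doses (not always all listed) √10 apart by pinning and were left 5 days with no medium change. Viability divides treated-well nuclei by vehicle-well nuclei and is the median across plates. Nuclei were counted by MetaXpress from 4× Hoechst images.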

[2] = compound: C[C@@H](N)c1ccc(C(=O)Nc2ccnc3[nH]ccc23)cc1
Method in brief: as §1

Tanzisertib = compound: O[C@H]1CC[C@H](Nc2ncc3nc(Nc4c(F)cc(F)cc4F)n([C@H]4CCOC4)c3n2)CC1 [Tanzisertib]
Method in brief: as §1

Cell Line | relative viability ([1]; 0.08 µM) | relative viability ([1]; 0.8 µM) | relative viability ([1]; 2.53 µM) | relative viability ([1]; 8 µM) | relative viability ([2]; 0.04 µM) | relative viability ([2]; 0.1265 µM) | relative viability ([2]; 0.4 µM) | relative viability ([2]; 1.265 µM) | relative viability ([2]; 4 µM) | relative viability (Tanzisertib; 0.08 µM) | relative viability (Tanzisertib; 0.253 µM) | relative viability (Tanzisertib; 0.8 µM) | relative viability (Tanzisertib; 2.53 µM) | relative viability (Tanzisertib; 8 µM)
NCI-H647 | 1.02 | 0.947 | 1 | 0.868 | 0.992 | 0.955 | 0.916 | 0.694 | 0.811 | 1.21 | 0.976 | 0.973 | 1.12 | 0.779
NCI-H650 | 0.946 | 0.933 | 1.08 | 0.998 |  | 0.849 | 0.932 |  | 0.785 | 0.973 | 1.01 | 0.975 | 1.14 | 0.411
NCI-H661 | 0.993 | 0.964 | 0.96 | 0.988 | 0.907 | 1.02 | 0.974 | 0.891 | 0.87 | 1.01 | 0.997 | 0.964 | 0.944 | 0.964
NCI-H727 | 0.874 | 0.942 | 1.05 | 1.22 | 1.02 | 1.17 | 1.25 | 0.932 | 1.3 | 0.918 | 0.901 | 1.01 | 0.887 | 0.944
NCI-H838 | 0.997 | 0.884 | 1.01 | 0.956 | 0.761 | 0.905 | 0.867 | 0.576 | 0.415 | 0.987 | 0.985 | 0.933 | 0.933 | 0.917
NCI-H1299 | 1.04 | 1.05 | 0.978 | 0.976 | 0.967 | 0.985 | 0.963 | 0.955 | 0.862 | 1.06 | 1.03 | 1.01 | 0.998 | 1.08
NCI-H1355 | 0.955 | 0.957 | 1.08 | 0.977 | 0.961 | 1.01 | 1.12 | 0.909 | 0.986 | 1.08 | 0.978 | 1.09 | 0.96 | 0.911
NCI-H1395 | 0.861 | 0.733 | 1.07 | 0.882 | 0.889 | 0.924 | 0.949 |  | 0.828 | 0.986 | 1 | 0.96 | 1.03 | 0.715
NCI-H1437 | 0.974 | 1.07 | 1 | 0.99 | 1.04 | 1.03 | 1.08 | 0.968 | 0.987 | 1 | 1.06 | 1.04 | 1.02 | 1.04
NCI-H1563 | 0.757 | 0.875 | 0.966 | 1.04 | 0.875 | 1.07 | 0.978 | 0.914 | 1.03 | 1.03 | 1.03 | 0.995 | 0.997 | 0.99
NCI-H1623 | 0.991 | 0.921 | 1.14 | 1.03 | 1.16 | 0.976 | 1.11 | 1.06 | 1.15 | 1.08 | 1.21 | 1.01 | 0.964 | 0.952
NCI-H1648 | 0.979 | 0.826 | 0.754 | 0.97 | 1.44 | 1.21 | 1.59 | 1.82 | 1.37 | 0.97 | 1.14 | 0.926 | 0.97 | 0.667
NCI-H1650 | 0.752 | 0.995 | 0.987 | 0.955 | 0.933 | 1.05 | 0.951 | 0.977 | 0.867 | 0.953 | 1 | 0.93 | 0.864 | 0.771
NCI-H1651 | 0.956 | 1.01 | 0.989 | 0.967 | 1.02 | 1 | 1.07 | 1.13 | 1.09 | 1.03 | 1.01 | 0.933 | 0.886 | 0.92
NCI-H1666 | 0.927 | 1.04 | 1.11 | 0.981 | 1.13 | 1.06 | 1.23 | 1.23 | 1.26 | 0.966 | 1.04 | 1.03 | 1.07 | 1.09
NCI-H1703 | 0.874 | 1.2 | 1.01 | 0.94 | 0.794 | 0.863 | 0.757 |  | 0.906 | 1.14 | 0.899 | 0.843 | 0.717 | 0.719
NCI-H1734 | 0.945 | 1.01 | 1.05 | 0.968 | 0.833 | 1.08 | 0.929 | 0.568 | 0.819 | 1.25 | 1.01 | 0.945 | 1.06 | 0.927
NCI-H1755 | 1.01 | 0.915 | 1.03 | 0.948 | 0.911 | 0.987 | 0.945 | 0.937 | 0.793 | 1.02 | 0.958 | 1 | 0.97 | 0.961
NCI-H1792 | 0.945 | 0.903 | 0.976 | 0.95 | 0.948 | 0.735 | 0.945 | 0.649 | 0.827 | 1.03 | 1.07 | 0.939 | 0.899 | 0.606
NCI-H1793 | 0.835 | 0.702 | 0.923 | 0.878 | 0.973 | 0.952 | 1.08 |  | 1.11 | 1.07 | 0.857 | 0.998 | 0.758 | 0.522
NCI-H1915 | 0.968 | 1.07 | 0.999 | 0.977 | 0.856 | 1.02 | 0.962 |  | 0.884 | 1.12 | 1.04 | 0.957 | 1.01 | 0.875
